Results as given in publication PMC7915449, “Differential Regulation of Bilastine Affinity for Human Histamine H1 Receptors by Lys 179 and Lys 191 via Its Binding Enthalpy and Entropy” (International Journal of Molecular Sciences, 2021).

Legend:
[1] = biological target: T1, K179A + K191A (both Lys179 and Lys191 mutant of H1 receptor to alanine) (Homo sapiens, UniProt P35367, K179A/K191A); assay: [3H]mepyramine displacement binding, membranes of CHO cells expressing K179A + K191A mutant
T1 construct: 3xHA (three copies of hemagglutinin YPYDVPDYA) (N); expressed in transfected cells; membrane preparations
T1 sequence (P35367 whole entry K179A/K191A): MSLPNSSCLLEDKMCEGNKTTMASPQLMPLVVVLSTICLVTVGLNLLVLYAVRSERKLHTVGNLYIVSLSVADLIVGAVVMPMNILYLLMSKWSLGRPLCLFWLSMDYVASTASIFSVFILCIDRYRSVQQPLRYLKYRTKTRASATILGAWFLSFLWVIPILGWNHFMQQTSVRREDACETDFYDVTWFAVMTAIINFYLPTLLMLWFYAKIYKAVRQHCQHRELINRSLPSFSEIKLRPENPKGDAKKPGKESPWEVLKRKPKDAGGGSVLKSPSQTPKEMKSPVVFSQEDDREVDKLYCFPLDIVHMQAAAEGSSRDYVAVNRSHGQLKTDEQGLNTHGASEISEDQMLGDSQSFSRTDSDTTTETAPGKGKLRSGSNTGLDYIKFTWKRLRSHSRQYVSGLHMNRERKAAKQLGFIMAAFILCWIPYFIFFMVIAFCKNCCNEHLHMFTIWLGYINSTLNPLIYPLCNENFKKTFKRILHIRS
Experimental: (§1) To evaluate changes in the binding affinity of bilastine for H1 receptors by mutations of Lys179^ECL2 and/or Lys191^5.39, the IC50 for bilastine was first obtained from the displacement curves for the binding of 3 nM [^3H] mepyramine to membrane preparations of CHO cells expressing wild-type human H1 receptors (WT), Lys179^ECL2 or Lys191^5.39 mutants of WT to alanine (K179A and K191A), and both Lys179^ECL2 and Lys191^5.39 mutants of WT to alanine (K179A + K191A) at 4 °C–37 °C (Figure 3). The Ki values for bilastine were then calculated from the IC50, as described in the materials and methods section.
(§2) CHO cells stably expressing WT, K179A, K191A, and K179A + K191A were cultured, and membrane preparations were obtained as described previously. […] The reaction mixture was filtered through glass fiber filters, and the radioactivity trapped on the filters was determined by scintillation counting. […] The protein content in the membrane preparations was determined using a BCA protein assay kit (Pierce, Rockford, IL, USA).
(§3) The IC50 for bilastine was determined by fitting the displacement curves to the one-site model (KaleidaGraph; Synergy Software, Reading, PA, USA):B = 100 − P × C/(C + IC50) where B is the amount of [^3H] mepyramine bound, C is the free concentration of bilastine, and P is the percentage of the binding sites of bilastine. […]

[2] = biological target: T2, K191A (Lys191 mutant of H1 receptor to alanine) (Homo sapiens, UniProt P35367, K191A); assay: [3H]mepyramine displacement binding, membranes of CHO cells expressing K191A mutant
T2 construct: 3xHA (three copies of hemagglutinin YPYDVPDYA) (N); expressed in transfected cells; membrane preparations
T2 sequence (P35367 whole entry K191A): as the sequence (P35367 whole entry K179A/K191A) above, with A179K counted along it
Experimental: as §1
CHO cells stably expressing WT, K179A, K191A, and K179A + K191A were cultured, and membrane preparations were obtained as described previously. The receptor binding assay with [^3H] mepyramine, a radioligand for H1 receptors, was performed in accordance with the methods described previously. Briefly, aliquots (0.1 mL) of membrane preparations (approximately 50 µg of membrane proteins) were incubated with 3 nM [^3H] mepyramine in the presence or absence of various concentrations of bilastine for 3 h at 37 °C, 24 h at 25 °C and 14 °C, and 7 days at 4 °C in normal HEPES buffer (NaCl, 120 mM; KCl, 5.4 mM; MgCl2, 1.6 mM; CaCl2, 1.8 mM, D-glucose, 11 mM; and HEPES, 25 mM; pH 7.4 at 37 °C; final volume 1 mL). The reaction mixture was filtered through glass fiber filters, and the radioactivity trapped on the filters was determined by scintillation counting. All determinations were made in quadruplicate. The protein content in the membrane preparations was determined using a BCA protein assay kit (Pierce, Rockford, IL, USA).
as §3

[3] = biological target: T3, K179A (Lys179 mutant of H1 receptor to alanine) (Homo sapiens, UniProt P35367, K179A); assay: [3H]mepyramine displacement binding, membranes of CHO cells expressing K179A mutant
T3 construct: 3xHA (three copies of hemagglutinin YPYDVPDYA) (N); expressed in transfected cells; membrane preparations
T3 sequence (P35367 whole entry K179A): as the sequence (P35367 whole entry K179A/K191A) above, with A191K counted along it
Experimental: as §1, §2, §3

[4] = biological target: T4, wild-type human H1 receptors (WT) (Homo sapiens, UniProt P35367); assay: biochemical; format: binding
T4 construct: 3xHA (three copies of hemagglutinin YPYDVPDYA) (N); membrane preparations
T4 sequence (P35367 whole entry): as the sequence (P35367 whole entry K179A/K191A) above, with A179K, A191K counted along it

[5] = test system: wild-type human H1 receptors (WT); assay: biochemical; format: binding; conditions: mutants K179A, K191A, K179A + K191A versus WT, 25 °C; significant
[6] = K191A versus WT, van 't Hoff analysis 4-37 °C, significant

**Q.** What does the source list for `CCOCCn1c(C2CCN(CCc3ccc(C(C)(C)C(=O)O)cc3)CC2)nc2ccccc21` [bilastine, Bilastine]?
**A.** Ki [1]: 7.96 ± 0.76 nM; reduction in the entropy-dependent binding forces (∆T∆S°) by mutation ([1]; K179A + K191A versus WT, van 't Hoff analysis 4-37 °C, not significant): 0.526 kcal/mol; Ki [2]: 2.57 ± 0.16 nM; increase in enthalpy-dependent binding forces (∆H°) by mutation [2, 6]: 1.94 kcal/mol; reduction in the entropy-dependent binding forces (∆T∆S°) by mutation [2, 6]: 1.96 kcal/mol; Ki [3]: 5.2 ± 1.18 nM; reduction in the enthalpy-dependent binding forces (∆H°) by mutation ([3]; K179A versus WT, van 't Hoff analysis 4-37 °C, not significant): 0.454 kcal/mol; Ki [4]: 1.92 ± 0.08 nM; reduction of affinity for H1 receptors following mutation of Lys179 and/or Lys191 [5]: 1.3 to 4.1 times
